As usually defined, the Emax is the greatest response seen or fitted, relative to the assay's reference.

These results are taken from patent US10329278B2, “Pharmaceutical compounds” (Heptares Therapeutics Limited, priority 2017, dated 2019).

Type in all cases: cell-based
In assay [1] the target is T1, human muscarinic M2 receptor (Homo sapiens, UniProt P08172).
T1 sequence (P08172 1-466): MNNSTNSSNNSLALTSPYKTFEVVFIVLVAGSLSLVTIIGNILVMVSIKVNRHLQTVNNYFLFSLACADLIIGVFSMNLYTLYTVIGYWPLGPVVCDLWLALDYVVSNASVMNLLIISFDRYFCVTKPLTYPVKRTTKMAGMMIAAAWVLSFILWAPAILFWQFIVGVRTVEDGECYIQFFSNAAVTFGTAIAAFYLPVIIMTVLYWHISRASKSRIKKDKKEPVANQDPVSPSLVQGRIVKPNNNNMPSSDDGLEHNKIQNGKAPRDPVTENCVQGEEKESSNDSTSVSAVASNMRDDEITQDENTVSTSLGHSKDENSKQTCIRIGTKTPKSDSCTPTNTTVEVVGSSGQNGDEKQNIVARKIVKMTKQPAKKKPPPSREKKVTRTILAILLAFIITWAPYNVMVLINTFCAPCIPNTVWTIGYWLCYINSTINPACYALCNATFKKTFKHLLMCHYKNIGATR
The assay is described as follows: Alphascreen Surefire phospho-ERK1/2 functional assay, M2. To be noted: for EC50 / pEC50 M2 / % Emax cf. ACh (M2): CHO cells stably expressing human M2; for EC50 / pEC50 M2: agonist 5 min, 37° C.; for EC50: read-out: pEC50 M2 (converted); for Emax: CHO, read-out: % Emax cf. ACh (M2); for % Emax cf. ACh (M2): relative to ACh. The protocol:
(§1) ERK1/2 phosphorylation is a downstream consequence of both Gq/11 and Gi/o protein coupled receptor activation, making it highly suitable for the assessment of M1, M3 (Gq/11 coupled) and M2, M4 receptors (Gi/o coupled), rather than using different assay formats for different receptor subtypes. CHO cells stably expressing the human muscarinic M1, M2, M3 or M4 receptor were plated (25K/well) onto 96-well tissue culture plates in MEM-alpha+10% dialysed FBS. Once adhered, cells were serum-starved overnight. Agonist stimulation was performed by the addition of 5 μL agonist to the cells for 5 min (37° C.). Media was removed and 50 μL of lysis buffer added. After 15 min, a 4 μL sample was transferred to 384-well plate and 7 μL of detection mixture added.
A general note: Bead proximity is the source of the signal in Alpha formats.

Assay [2] deals with T2, human muscarinic M3 receptor (Homo sapiens, UniProt P20309).
T2 construct: expressed in transfected cells
T2 sequence (P20309 whole entry): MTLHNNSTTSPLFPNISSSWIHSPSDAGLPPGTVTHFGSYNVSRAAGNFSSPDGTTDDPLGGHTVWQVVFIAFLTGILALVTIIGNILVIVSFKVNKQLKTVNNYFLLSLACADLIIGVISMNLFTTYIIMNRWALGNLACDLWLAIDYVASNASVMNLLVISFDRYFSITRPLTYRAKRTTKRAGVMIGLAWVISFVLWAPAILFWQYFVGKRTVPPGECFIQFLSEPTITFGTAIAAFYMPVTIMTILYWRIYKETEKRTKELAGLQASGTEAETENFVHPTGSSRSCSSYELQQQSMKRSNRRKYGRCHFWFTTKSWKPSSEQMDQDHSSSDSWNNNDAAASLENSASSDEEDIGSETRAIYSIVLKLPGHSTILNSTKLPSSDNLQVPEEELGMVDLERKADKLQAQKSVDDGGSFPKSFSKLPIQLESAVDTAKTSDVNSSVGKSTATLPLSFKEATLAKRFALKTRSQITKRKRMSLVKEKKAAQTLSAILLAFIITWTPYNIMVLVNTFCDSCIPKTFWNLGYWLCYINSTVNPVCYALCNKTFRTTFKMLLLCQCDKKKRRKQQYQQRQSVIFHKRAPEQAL
Put plainly: Alphascreen Surefire phospho-ERK1/2 functional assay, M3. To be noted: for EC50 / pEC50 M3 / % Emax cf. ACh (M3): CHO cells stably expressing human M3; for EC50 / pEC50 M3: agonist 5 min, 37° C.; for EC50: read-out: pEC50 M3 (converted); for Emax: CHO, read-out: % Emax cf. ACh (M3); for % Emax cf. ACh (M3): relative to ACh. How it is done: as §1

For assay [3], the target named is T3, human muscarinic M4 receptor (Homo sapiens, UniProt P08173).
T3 construct: expressed in transfected cells
T3 sequence (P08173 1-479): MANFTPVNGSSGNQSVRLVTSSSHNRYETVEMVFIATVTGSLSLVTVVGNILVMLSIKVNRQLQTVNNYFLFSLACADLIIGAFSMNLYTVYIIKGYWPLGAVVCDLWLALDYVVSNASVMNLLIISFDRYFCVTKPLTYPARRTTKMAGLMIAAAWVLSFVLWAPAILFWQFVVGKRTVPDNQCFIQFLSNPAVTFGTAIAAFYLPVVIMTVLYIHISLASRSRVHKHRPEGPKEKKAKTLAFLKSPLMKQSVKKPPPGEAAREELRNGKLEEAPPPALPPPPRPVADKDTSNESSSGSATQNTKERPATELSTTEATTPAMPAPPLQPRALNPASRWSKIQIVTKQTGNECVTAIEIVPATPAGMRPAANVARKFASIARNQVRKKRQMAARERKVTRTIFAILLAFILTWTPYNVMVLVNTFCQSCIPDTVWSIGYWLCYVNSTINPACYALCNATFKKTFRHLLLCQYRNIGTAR
Put plainly: Alphascreen Surefire phospho-ERK1/2 functional assay, M4. Conditions: for EC50 / % Emax cf. ACh (M4) / pEC50 M4: CHO cells stably expressing human M4; for EC50 / pEC50 M4: agonist 5 min, 37° C.; for EC50: read-out: pEC50 M4 (converted); for Emax: CHO, read-out: % Emax cf. ACh (M4), CHO cells stably expressing human M4; for Emax / % Emax cf. ACh (M4): relative to ACh. How it is done:
as §1

Assay [4] deals with T4, human muscarinic M1 receptor (Homo sapiens, UniProt P11229).
T4 sequence (P11229 1-460): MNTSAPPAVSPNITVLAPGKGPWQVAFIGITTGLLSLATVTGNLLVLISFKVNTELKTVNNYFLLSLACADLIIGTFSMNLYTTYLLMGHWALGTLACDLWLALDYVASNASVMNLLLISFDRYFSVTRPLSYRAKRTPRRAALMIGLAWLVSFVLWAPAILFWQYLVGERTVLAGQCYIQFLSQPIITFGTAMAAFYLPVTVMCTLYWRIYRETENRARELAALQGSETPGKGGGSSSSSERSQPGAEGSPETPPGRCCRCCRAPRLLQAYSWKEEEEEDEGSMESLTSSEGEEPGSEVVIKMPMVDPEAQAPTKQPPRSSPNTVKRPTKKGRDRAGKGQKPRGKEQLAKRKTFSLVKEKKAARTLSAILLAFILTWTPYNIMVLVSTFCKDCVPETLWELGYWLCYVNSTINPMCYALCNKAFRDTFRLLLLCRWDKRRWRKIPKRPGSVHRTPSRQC
Put plainly: Alphascreen Surefire phospho-ERK1/2 functional assay, M1. Conditions: for EC50 / % Emax cf. ACh (M1) / pEC50 M1: CHO cells stably expressing human M1; for EC50 / pEC50 M1: agonist 5 min, 37° C.; for EC50: read-out: pEC50 M1 (converted); for Emax: CHO, read-out: % Emax cf. ACh (M1), CHO cells stably expressing human M1; for Emax / % Emax cf. ACh (M1): relative to ACh. The protocol:
as §1

In the case of `CCOC(=O)C1C2CN(C3CC4(CCN(C(=O)OCC)C4)C3)CC21` (mixture of isomers) [2-1 Mixture of isomers], the EC50 was greater than 20000 nM in assay [1], greater than 20000 nM in assay [2], 77.6 nM in assay [3] and greater than 20000 nM in assay [4]. The Emax in assay [1] was determined as 7%; in assay [2] it was 0%; in assay [3], 86%; in assay [4], 22%.

Regarding `CCOC(=O)N1CCC2(CC(N3CC4C(C3)C4C(=O)N3CCC34CC4)C2)C1` (single isomer, unassigned) [2-19 Isomer 2], the EC50 was greater than 20000 nM in assay [1], greater than 20000 nM in assay [2], 37.2 nM in assay [3] and 13.2 nM in assay [4]. Further, the Emax in assay [1] was found to be 16%; in assay [2] it was 35%; in assay [3], 95%; in assay [4] it was 93%.

On to `CCOC(=O)N1CCC2(CC(N3CC4C(C3)C4C(CC)=NOC)C2)C1` (single isomer, unassigned) [2-25 Isomer 4], for which, in assay [1], the EC50 is greater than 20000 nM and the Emax came to 24%. Further, in assay [2], the EC50 was greater than 20000 nM and the Emax amounted to 4%. In assay [3], the EC50 is 151 nM and the “% Emax cf. ACh (M4)” value stood at 48%. For the same compound, in assay [4], the EC50 is 324 nM and the “% Emax cf. ACh (M1)” value is on record as 65%.

As to `CCOC(=O)N1CCC2(CC(N3CC4C(C3)C4OC(C)c3ccccc3)C2)C1` (single isomer, unassigned) [2-28 Isomer 2], the EC50 in assay [1] is greater than 20000 nM; in assay [2] it was greater than 20000 nM; in assay [3], 53.7 nM; in assay [4], 64.6 nM. In addition, the values for the Emax in assay [1] and in assay [2] were 7% and 5%, respectively. In assay [3], the “% Emax cf. ACh (M4)” value turned out to be 51%. In assay [4], the “% Emax cf. ACh (M1)” value is recorded as 104%.

Take `CCOC(=O)N1CCC2(CC(N3C[C@@H]4[C@H](C3)[C@H]4c3ccnn3C)C2)C1` (single isomer, unassigned) [2-29 Isomer 2]: the EC50 was greater than 20000 nM in assay [1], greater than 20000 nM in assay [2], 87.1 nM in assay [3] and 646 nM in assay [4]. Also, the Emax is 36% in assay [1], 2% in assay [2], 83% in assay [3] and 43% in assay [4].

As to `CCOC(=O)N1C2CCCC1CC(N1CC3C(C1)C3C(=O)N(C)CC)C2` (single isomer, unassigned; isomer 1) [9-1 Isomer 1], in assay [1], the “pEC50 M2” value is given as less than 4.70 and the “% Emax cf. ACh (M2)” value is 19%. Further, in assay [2], the “pEC50 M3” value is on record as less than 4.70 and the “% Emax cf. ACh (M3)” value amounted to 21%. Besides, in assay [3], the “pEC50 M4” value was found to be 6.06 and the “% Emax cf. ACh (M4)” value was 57%. Also, in assay [4], the “pEC50 M1” value came to 7.04 and the “% Emax cf. ACh (M1)” value is recorded as 93%.

In the case of `CCOC(=O)N1C2COCC1CC(N1CC3C(C1)C3C(=O)N1CCOCC1)C2` (single isomer, unassigned; isomer 1) [10-13 Isomer 1], in assay [1], the “pEC50 M2” value is on record as less than 4.70 and the “% Emax cf. ACh (M2)” value came to 24%. In assay [2], the “pEC50 M3” value is on record as less than 4.70 and the “% Emax cf. ACh (M3)” value amounted to 68%. For the same compound, in assay [3], the “pEC50 M4” value was determined as 5.95 and the “% Emax cf. ACh (M4)” value was 64%. In assay [4], the “pEC50 M1” value was 6.51 and the “% Emax cf. ACh (M1)” value was determined as 104%.

On to `CCOC(=O)N1C2COCC1CC(N1CC3C(C1)C3C(=O)N(CC)CC)C2` (single isomer, unassigned; isomer 2) [10-2 Isomer 2], for which, in assay [1], the “pEC50 M2” value is reported as less than 4.70 and the “% Emax cf. ACh (M2)” value is 25%. Besides, in assay [2], the “pEC50 M3” value was less than 4.70 and the “% Emax cf. ACh (M3)” value is recorded as 10%. For the same compound, in assay [3], the “pEC50 M4” value amounted to 6.04 and the “% Emax cf. ACh (M4)” value is 62%. Moreover, in assay [4], the “pEC50 M1” value stood at 7.15 and the “% Emax cf. ACh (M1)” value is 113%.

Turning to `CCOC(=O)N1C2COCC1CC(N1CC3C(C1)C3C(=O)N1CCOCC1)C2` (single isomer, unassigned; isomer 2) [10-13 Isomer 2], in assay [1], the “pEC50 M2” value is recorded as less than 4.70 and the “% Emax cf. ACh (M2)” value is 24%. Moreover, in assay [2], the “pEC50 M3” value is listed as less than 4.70 and the “% Emax cf. ACh (M3)” value is listed as 22%. Moreover, in assay [3], the “pEC50 M4” value worked out at 4.99 and the “% Emax cf. ACh (M4)” value was 59%. Moreover, in assay [4], the “pEC50 M1” value is listed as 6.43 and the “% Emax cf. ACh (M1)” value is reported as 101%.

Take `CCOC(=O)[C@H]1[C@@H]2CN(C3CC4(C3)CN(C(=O)OCC)C4)C[C@@H]21` [Example 1-1, ethyl 6-[(1R,5S,6r)-6-(ethoxycarbonyl)-3-azabicyclo[3.1.0]hex-3-yl]-2-azaspiro[3.3]heptane-2-carboxylate]: the EC50 in assay [1] is greater than 20000 nM; in assay [2], greater than 20000 nM; in assay [3] it was 316 nM; in assay [4] it was 9330 nM. Moreover, the Emax in assay [1] amounted to 12%; in assay [2], 6%; in assay [3], 73%; in assay [4], 115%.

As to `CCOC(=O)N1CC2(CC(N3C[C@@H]4[C@H](C3)[C@H]4c3csc(C)n3)C2)C1` [Example 1-4, ethyl 6-[(1R,5S,6r)-6-(2-methyl-1,3-thiazol-4-yl)-3-azabicyclo[3.1.0]hex-3-yl]-2-azaspiro[3.3]heptane-2-carboxylate], in assay [3], the EC50 is 617 nM and the Emax amounted to 47%. In assay [4], the EC50 was 4570 nM and the Emax was determined as 55%.

`CCOC(=O)N1CCC(N2C[C@@H]3[C@H](C2)[C@H]3C(=O)N(CC)CC)CC1` [Example 4-1]: in assay [3], the EC50 is 708 nM and the Emax was found to be 35%. In assay [4], the EC50 is 234 nM and the Emax stood at 84%.
